Patent publication US10066159B2, “Composite nanoparticles including a phthalic acid derivative” (3M INNOVATIVE PROPERTIES COMPANY, priority 2013, dated 2018)

Assay: Solubility in toluene
Type: physicochemical
Settings: based on a total weight of the solution

| SMILES | solubility in toluene |
| --- | --- |
| CCCCCCCCOc1cc(C(=O)O)c(C(=O)O)cc1OCCCCCCCC [Example 2, 4,5-dioctyloxyphthalic Acid] | greater than 1 weight percent |
| CCCCCCOc1ccc(C(=O)O)c(C(=O)O)c1 [Example 1, 4-hexyloxyphthalic Acid] | greater than 1 weight percent |
